# Measured values as given in the supplement of paper PMC10307832.
# How the values were obtained:
# Test in all cases: relative viability (nuclei count vs DMSO), 5 days (fraction); higher = more cells survive
# [1] = compound: CC1=CC(=CC=C1)NC2=NC(=CS2)C3=CC=NC=C3 + Nc1ncn([C@H]2C[C@H](O)[C@@H](CO)O2)c(=O)n1 [Decitabine] (partner 2 µM)
# Procedure, shortened: (§1)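 Lung cancer cell lines were pin-tool dosed in 1536-well plates on the day after seeding, with either a lone drug or a fixed anchor-drug dose plus five library-drug doses (not always all listed) in √10 steps. Nuclei were counted on 4× images after 5 days. Relative viability is the ratio of treated-well to vehicle-well nuclei counts, with each value a median of duplicate plates.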
# [2] = compound: CC1=CC(=CC=C1)NC2=NC(=CS2)C3=CC=NC=C3 + O=C(CCCCCCC(=O)Nc1ccccc1)NO [Vorinostat] (partner 1 µM)
# Procedure, shortened: as §1
# [3] = compound: CC1=CC(=CC=C1)NC2=NC(=CS2)C3=CC=NC=C3
# Procedure, shortened: (§2)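 A plate was accepted only when its control CV was below 25% and the cells had doubled at least once. Viability is defined from nuclear counts as treated wells divided by vehicle wells, with the median taken across plates. That median covers lung cancer cell lines grown in 1536-well plates, dosed by pinning at five √10-spaced library-drug concentrations, and counted in MetaXpress from 4× Hoechst images after 5 days.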
# Masitinib = compound: Cc1ccc(NC(=O)c2ccc(CN3CCN(C)CC3)cc2)cc1Nc1nc(-c2cccnc2)cs1 [Masitinib]
# Procedure, shortened: as §2
cell line,measurement,setting,value
UMC-11,relative viability,[1]; first compound 0.08 µM,0.56
same,relative viability,[1]; first compound 0.253 µM,0.552
same,relative viability,[1]; first compound 0.8 µM,0.572
same,relative viability,[1]; first compound 2.53 µM,0.626
same,relative viability,[1]; first compound 8 µM,0.714
same,relative viability,[2]; first compound 0.08 µM,0.356
same,relative viability,[2]; first compound 0.253 µM,0.32
same,relative viability,[2]; first compound 0.8 µM,0.354
same,relative viability,[2]; first compound 2.53 µM,0.34
same,relative viability,[2]; first compound 8 µM,0.487
same,relative viability,[3]; 0.08 µM,0.872
same,relative viability,[3]; 0.253 µM,0.927
same,relative viability,[3]; 0.8 µM,0.927
same,relative viability,[3]; 2.53 µM,0.93
same,relative viability,[3]; 8 µM,1.03
same,relative viability,Masitinib; 0.01 µM,0.926
same,relative viability,Masitinib; 0.03162 µM,0.969
same,relative viability,Masitinib; 0.1 µM,1.09
same,relative viability,Masitinib; 0.3162 µM,0.961
same,relative viability,Masitinib; 1 µM,1.06
